*1 amine or outer side, *2 acyl side, *3 side chain or, on linkers, in order; H or OH if unused. Where a SMILES comes first, the peptide text is derived from it. [ ]: non-standard residue; d: D form. The star is where a group is joined. PEG 5000 = polyethylene glycol (5000) attached to the Lys side chain; Glyψ(1,4-Tz)Leu = CC(C)C[C@@H](C(=O)[*:2])n1cc(CN[*:1])nn1; γGlu = O=C(O)[C@H](CCC(=O)[*:2])N[*:1]; Arg(Me) = CNC(=N)NCCC[C@H](N)C(=O)O; Palmitoyl = CCCCCCCCCCCCCCCC(=O)*
Molecular target: T1, human KISS1R receptor (Homo sapiens, UniProt Q969F8)
T1 construct: expressed in transfected cells
T1 sequence (Q969F8 whole entry): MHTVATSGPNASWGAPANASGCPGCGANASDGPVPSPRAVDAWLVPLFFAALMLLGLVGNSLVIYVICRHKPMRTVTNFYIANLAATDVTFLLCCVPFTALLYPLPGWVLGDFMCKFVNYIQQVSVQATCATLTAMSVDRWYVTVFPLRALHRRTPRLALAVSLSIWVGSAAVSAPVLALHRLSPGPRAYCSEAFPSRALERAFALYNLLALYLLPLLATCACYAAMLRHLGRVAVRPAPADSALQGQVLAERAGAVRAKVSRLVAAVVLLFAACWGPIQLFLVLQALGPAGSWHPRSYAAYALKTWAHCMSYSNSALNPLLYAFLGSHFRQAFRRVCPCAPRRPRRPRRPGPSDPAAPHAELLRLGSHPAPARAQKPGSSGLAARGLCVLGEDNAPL
Test: Intracellular calcium mobilization test in HEK293A cells expressing human KISS1R
Format: cell-based
Details: for human KISS1R-stimulating power (in words): calcium mobilization, compared with Comp.1; for EC50: HEK293A cells expressing human KISS1R, Fluo-4NW, compounds with serum albumin binding unit or PEG, read-out: EC50, intracellular calcium mobilization of cells expressing human KISS1R (Table 3)
Description: In order to carry out the in vitro tests for the activity of the peptide compounds in accordance with the invention and the comparative compounds, the HEK293A cell line (ATCC, American Type Culture Collection, Manassas, Va., USA) was stably transfected with the human KISS1R receptor (Genbank accession number: NM_032551). The pcDNA3.1 vector (Invitrogen, Cergy Pontoise, France), into which the sequence of human KISS1R has been inserted with a 5′ HA tag at position 957-2150 bp, was used for the transfection. The transfection and the selection of the clones were carried out as described in the literature (Mancini et al. 2009, and Invitrogen website).
In order to verify the agonist activity and to measure the EC50 of the peptide compounds according to the invention, the following protocol was carried out.
HEK293A cells expressing the human KISS1R receptor were seeded into a 96-well plate (μClear® black plate) at the concentration of 40 000 cells/well, and placed in an incubator at 37° C. After 48 hours, the medium was changed and the cells were incubated with the fluorescent dye Fluo-4NW, according to the instructions of the manufacturer (Molecular Probe).
After having measured the basal fluorescence, 5 μl of the 20× solution containing the test compound were added to each well (containing 95 μl) so as to obtain the desired concentration. The variations in fluorescence were recorded every 7 seconds for 5-7 minutes with a plate reader (PolarStar Optima, BMG Labtech). Activity-concentration curves were generated using the GraphPad Prism 5 software, and the EC50 of each compound was calculated by adjusting the curve to a sigmoid.

**Q.** For “Ac-Tyr-Lys(PEG5000)-Trp-Asn-Ser-Phe-GlyΨ[Tz]Leu-Arg-Tyr-NH2 (Ac-YK(PEG 5000)WNSFGLRY-NH2; also: Gly7-Leu8 peptide bond replaced by 1,4-disubstituted 1,2,3-triazole) [Compound C16, PEG5000 = COCH2CH2NH(CH2CH2O)nMe, average molecular weight approximately 5000 g/mol]”, which “human KISS1R-stimulating power (in words)” value is on record?
**A.** The value was “shows a power similar to the comparative compound Comp.1”.

**Q.** For CCCCCCCCCCCCCCCC(=O)N[C@@H](CCC(=O)NCCCC[C@H](NC(=O)[C@H](CC(N)=O)NC(=O)[C@H](Cc1ccc(O)cc1)NC(C)=O)C(=O)N[C@@H](CC(N)=O)C(=O)N[C@@H](CO)C(=O)N[C@@H](Cc1ccccc1)C(=O)NCc1cn([C@@H](CC(C)C)C(=O)N[C@@H](CCCNC(=N)N)C(=O)N[C@@H](Cc2ccc(O)cc2)C(N)=O)nn1)C(=O)O [Compound C11, Ac-Tyr-Asn-Lys(γ-(N-hexadecanoyl-Glu-OH))-Asn-Ser-Phe-GlyΨ[Tz]Leu-Arg-Tyr-NH2] (HELM PEPTIDE1{[ac].Y.N.K.N.S.F.[CC(C)C[C@@H](C(=O)[*:2])n1cc(CN[*:1])nn1].R.Y.[am]}|PEPTIDE2{[CCCCCCCCCCCCCCCC(=O)[*:2]].[gGlu]}$PEPTIDE1,PEPTIDE2,4:R3-2:R2$$$V2.0), which “human KISS1R-stimulating power (in words)” value is on record?
**A.** Its value is “remains, however, active, although to a lesser degree”.

**Q.** How did the EC50 turn out when CCCCCCCCCCCCCCCC(=O)N[C@@H](CCC(=O)N[C@@H](Cc1ccc(O)cc1)C(=O)N[C@@H](CC(N)=O)C(=O)N[C@@H](Cc1c[nH]c2ccccc12)C(=O)N[C@@H](CC(N)=O)C(=O)N[C@@H](CO)C(=O)N[C@@H](Cc1ccccc1)C(=O)NCc1cn([C@@H](CC(C)C)C(=O)N[C@@H](CCCNC(=N)N)C(=O)N[C@@H](Cc2ccc(O)cc2)C(N)=O)nn1)C(=O)O [Compound C9, γ-(N-hexadecanoyl-Glu-OH)-Tyr-Asn-Trp-Asn-Ser-Phe-GlyΨ[Tz]Leu-Arg-Tyr-NH2] (HELM PEPTIDE1{[CCCCCCCCCCCCCCCC(=O)[*:2]].[gGlu].Y.N.W.N.S.F.[CC(C)C[C@@H](C(=O)[*:2])n1cc(CN[*:1])nn1].R.Y.[am]}$$$$V2.0) was run?
**A.** The EC50 was under 1 pM.

**Q.** CCCCCCCCCCCCCCCC(=O)N[C@@H](CCC(=O)N[C@@H](Cc1ccc(O)cc1)C(=O)N[C@@H](CC(N)=O)C(=O)N[C@@H](Cc1c[nH]c2ccccc12)C(=O)N[C@@H](CC(N)=O)C(=O)N[C@@H](CO)C(=O)N[C@@H](Cc1ccccc1)C(=O)NCc1cn([C@@H](CC(C)C)C(=O)N[C@@H](CCCNC(=N)NC)C(=O)N[C@@H](Cc2ccc(O)cc2)C(N)=O)nn1)C(=O)O [Compound C12, γ-(N-hexadecanoyl-Glu-OH)Tyr-Asn-Trp-Asn-Ser-Phe-GlyΨ[Tz]Leu-Arg(Me)-Tyr-NH2] ({Palmitoyl-γGlu}-YNWNSF[Glyψ(1,4-Tz)Leu][Arg(Me)]Y-NH2) was tested. Which EC50 did it give?
**A.** The EC50 was under 1 pM.

**Q.** For CCCCCCCCCCCCCCCC(=O)N[C@@H](CCC(=O)N[C@@H](Cc1ccc(O)cc1)C(=O)N[C@@H](CC(N)=O)C(=O)N[C@@H](Cc1c[nH]c2ccccc12)C(=O)N[C@@H](CC(N)=O)C(=O)N[C@@H](CO)C(=O)N[C@@H](Cc1ccccc1)C(=O)NCc1cn([C@@H](CC(C)C)C(=O)N[C@@H](CCCNC(=N)N)C(=O)N[C@@H](Cc2c[nH]c3ccccc23)C(N)=O)nn1)C(=O)O [Compound C10, γ-(N-hexadecanoyl-Glu-OH)Tyr-Asn-Trp-Asn-Ser-Phe-GlyΨ[Tz]Leu-Arg-Trp-NH2] (HELM PEPTIDE1{[CCCCCCCCCCCCCCCC(=O)[*:2]].[gGlu].Y.N.W.N.S.F.[CC(C)C[C@@H](C(=O)[*:2])n1cc(CN[*:1])nn1].R.W.[am]}$$$$V2.0), which EC50 is on record?
**A.** Its EC50 is under 1 pM.

From patent publication US9884891B2, “KISS1R receptor agonist compounds and use thereof for inducing ovulation in mammals” (INSTITUT NATIONAL DE LA RECHERCHE AGRONOMIQUE, priority 2013, dated 2018)
